Laboratory results from patent US20250145665A1, “MACROCYCLIC PEPTIDES USEFUL AS MODULATORS OF TNF ALPHA” (Bristol-Myers Squibb Company, priority 2023, published 2025).
Read-outs that look alike come from different tables or passages of the source. Starred links: 1 amine or outer side, 2 acyl side, 3 side chain; linkers in the order of their positions; H or OH if unused. Positions of bridges follow the written chain, without caps; N, C: chain ends. Non-standard residues stand in square brackets, D forms with d. Residues, ends and D or L forms follow the SMILES beside them. ξ: configuration not given here. *: point of attachment. X56 = O=C(O)COc1cccc(NC(=O)c2ccc(-c3ccc(C[C@H](N[*:1])C(=O)[*:2])cc3)cc2)c1; Bip(4'-NH) = O=C([C@H](Cc1ccc(-c2ccc(N[*:3])cc2)cc1)N[*:1])[*:2]; X45 = CS(=O)(=O)Nc1ccc(CNC(=N)NCCC[C@@H](N[*:1])C(=O)[*:2])cc1; Bip(4'-CONHMe) = CNC(=O)c1ccc(-c2ccc(C[C@H](N)C(=O)O)cc2)cc1; dArg(ω-Bn(3-CH2OH)) = N=C(NCCC[C@@H](N)C(=O)O)NCc1cccc(CO)c1; Indazole3carbonyl(1-CH2COOH) = O=C(O)Cn1nc(C(=O)*)c2ccccc21; Bip(4'-COOH) = N[C@@H](Cc1ccc(-c2ccc(C(=O)O)cc2)cc1)C(=O)O; X29 = N=C(NCCC[C@@H](N[*:1])C(=O)[*:2])NCCc1ccc(F)c(F)c1; Trp(1-CH2COOH) = N[C@@H](Cc1cn(CC(=O)O)c2ccccc12)C(=O)O; X30 = N#Cc1ccc(CCNC(=N)NCCC[C@@H](N[*:1])C(=O)[*:2])cc1; X8 = N=C(NCCC[C@@H](N[*:1])C(=O)[*:2])NCCc1ccc(CN)cc1; Ala(imidazol-2-yl) = N[C@@H](Cc1ncc[nH]1)C(=O)O; Ala(morpholin-4-yl) = N[C@@H](CN1CCOCC1)C(=O)O; Benzoyl(3-OCH2COOH) = O=C(O)COc1cccc(C(=O)*)c1; Bip = N[C@@H](Cc1ccc(-c2ccccc2)cc1)C(=O)O; X81 = N[C@@H](Cc1ccc(OCC(=O)O)cc1)C(=O)*; Cha = N[C@@H](CC1CCCCC1)C(=O)O; Tle = CC(C)(C)[C@H](N)C(=O)O; ξP = O=C(O)C1CCCN1; Sar = CNCC(=O)O

Molecular target: TNFα (Homo sapiens, UniProt P01375)
Assay: TNF-Induced HEK-Blue Assay
Format: cell-based
[1] = HEK-Blue-CD40L cells, NF-kB-driven secreted alkaline phosphatase reporter, TNFα 0.5 ng/ml, 18 h, read-out: TNF induced HEK-Blue assay IC50 value

TNFα, sequence (P01375 77-233 limits assumed): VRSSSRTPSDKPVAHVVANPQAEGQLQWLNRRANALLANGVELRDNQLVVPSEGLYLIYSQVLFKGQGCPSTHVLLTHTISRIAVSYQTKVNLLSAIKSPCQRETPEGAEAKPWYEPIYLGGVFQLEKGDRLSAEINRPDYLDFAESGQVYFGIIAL

Row | Compound | IC50 [1] | IC50
1 | CC[C@H](C)[C@@H]1NC(=O)[C@@H](CCCNC(=N)N)NC(=O)[C@H](CC(=O)O)NC(=O)[C@H](Cc2cnc[nH]2)NC(=O)CN(C)C(=O)[C@H](Cc2ccc(-c3ccc(NC(=O)[C@@H](N)Cc4cn(CC(=O)O)c5ccccc45)cc3)cc2)NC(=O)[C@H](Cc2ccc(-c3ccccc3)cc2)NC(=O)[C@H](CC2CCCCC2)NC(=O)CSC[C@@H](C(=O)NCC(N)=O)NC(=O)[C@H](CC(C)C)NC(=O)[C@H](Cc2ncc[nH]2)NC(=O)[C@H](C(C)C)NC(=O)C2CCCN2C1=O (stereo partly shown) [Example 420] ({CH2CO}-[Cha][Bip][Bip(4'-NH)](Trp(1-CH2COOH))[Sar]HD[dR]I[ξP]V[Ala(imidazol-2-yl)]LCG-NH2; thioether N-13) | 50 to 200 nM | 
2 | CC[C@H](C)[C@@H]1NC(=O)C2CCCN2C(=O)[C@H]([C@@H](C)CC)NC(=O)[C@@H](CCCNC(=N)N)NC(=O)[C@H](CC(=O)O)NC(=O)[C@H](Cc2ccccc2)NC(=O)CN(C)C(=O)[C@H](Cc2ccc(-c3ccc(NC(=O)[C@@H](N)Cc4ccc(OCC(=O)O)cc4)cc3)cc2)NC(=O)[C@H](Cc2ccc(-c3ccc(C(=O)O)cc3)cc2)NC(=O)[C@H](C(C)(C)C)NC(=O)CSC[C@@H](C(=O)NCC(N)=O)NC(=O)[C@H](CC(C)C)NC(=O)[C@H](Cc2ncc[nH]2)NC1=O (stereo partly shown) [Example 421] ({CH2CO}-[Tle][Bip(4'-COOH)][Bip(4'-NH)](X81)[Sar]FD[dR]I[ξP]I[Ala(imidazol-2-yl)]LCG-NH2; thioether N-13) | 50 to 200 nM | 
3 | CC[C@H](C)[C@@H]1NC(=O)[C@@H](CCCNC(=N)N)NC(=O)[C@H](CC(=O)O)NC(=O)[C@H](Cc2cnc[nH]2)NC(=O)CN(C)C(=O)[C@H](Cc2ccc(-c3ccc(NC(=O)c4cccc(OCC(=O)O)c4)cc3)cc2)NC(=O)[C@H](Cc2ccc(-c3ccc(C(=O)Nc4cccc(OCC(=O)O)c4)cc3)cc2)NC(=O)[C@H](CC2CCCCC2)NC(=O)CSC[C@@H](C(=O)NCC(N)=O)NC(=O)[C@H](CC(C)C)NC(=O)[C@H](Cc2ncc[nH]2)NC(=O)[C@H](C(C)C)NC(=O)C2CCCN2C1=O (stereo partly shown) [Example 422] ({CH2CO}-[Cha][X56][Bip(4'-NH)](Benzoyl(3-OCH2COOH))[Sar]HD[dR]I[ξP]V[Ala(imidazol-2-yl)]LCG-NH2; thioether N-13) | < 50 nM | 
4 | CC(C)C[C@@H]1NC(=O)[C@H](CCCNC(=N)N)NC(=O)[C@H](C(C)C)NC(=O)[C@@H]2CCCN2C(=O)[C@H](C(C)C)NC(=O)[C@@H](CCCNC(=N)NCCc2ccc(F)c(F)c2)NC(=O)[C@H](CC(=O)O)NC(=O)[C@@H]2CCCN2C(=O)CN(C)C(=O)[C@H](Cc2ccc(-c3ccc(NC(=O)c4nn(CC(=O)O)c5ccccc45)cc3)cc2)NC(=O)[C@H](Cc2ccc(-c3ccccc3)cc2)NC(=O)[C@H](CN2CCOCC2)NC(=O)CSC[C@@H](C(=O)NCC(N)=O)NC1=O [Example 423] ({CH2CO}-[Ala(morpholin-4-yl)][Bip][Bip(4'-NH)](Indazole3carbonyl(1-CH2COOH))[Sar]PD[X29]VPVRLCG-NH2; thioether N-13) |  | < 50 nM
5 | CNC(=O)c1ccc(-c2ccc(C[C@@H]3NC(=O)[C@H](CN4CCOCC4)NC(=O)CSC[C@@H](C(=O)NCC(N)=O)NC(=O)[C@H](CC(C)C)NC(=O)[C@H](CCCNC(=N)N)NC(=O)[C@H](C(C)C)NC(=O)[C@@H]4CCCN4C(=O)[C@H](C(C)C)NC(=O)[C@@H](CCCNC(=N)NCCc4ccc(F)c(F)c4)NC(=O)[C@H](CC(=O)O)NC(=O)[C@@H]4CCCN4C(=O)CN(C)C(=O)[C@H](Cc4ccc(-c5ccc(NC(=O)c6nn(CC(=O)O)c7ccccc67)cc5)cc4)NC3=O)cc2)cc1 [Example 424] ({CH2CO}-[Ala(morpholin-4-yl)][Bip(4'-CONHMe)][Bip(4'-NH)](Indazole3carbonyl(1-CH2COOH))[Sar]PD[X29]VPVRLCG-NH2; thioether N-13) |  | 50 to 200 nM
6 | CC(C)C[C@@H]1NC(=O)[C@H](CCCNC(=N)N)NC(=O)[C@H](C(C)C)NC(=O)[C@@H]2CCCN2C(=O)[C@H](C(C)C)NC(=O)[C@@H](CCCNC(=N)NCc2cccc(CO)c2)NC(=O)[C@H](CC(=O)O)NC(=O)[C@@H]2CCCN2C(=O)CN(C)C(=O)[C@H](Cc2ccc(-c3ccc(NC(=O)c4nn(CC(=O)O)c5ccccc45)cc3)cc2)NC(=O)[C@H](Cc2ccc(-c3ccccc3)cc2)NC(=O)[C@H](CN2CCOCC2)NC(=O)CSC[C@@H](C(=O)NCC(N)=O)NC1=O [Example 425] ({CH2CO}-[Ala(morpholin-4-yl)][Bip][Bip(4'-NH)](Indazole3carbonyl(1-CH2COOH))[Sar]PD[dArg(ω-Bn(3-CH2OH))]VPVRLCG-NH2; thioether N-13) |  | < 50 nM
7 | CNC(=O)c1ccc(-c2ccc(C[C@@H]3NC(=O)[C@H](CN4CCOCC4)NC(=O)CSC[C@@H](C(=O)NCC(N)=O)NC(=O)[C@H](CC(C)C)NC(=O)[C@H](CCCNC(=N)N)NC(=O)[C@H](C(C)C)NC(=O)[C@@H]4CCCN4C(=O)[C@H](C(C)C)NC(=O)[C@@H](CCCNC(=N)NCc4cccc(CO)c4)NC(=O)[C@H](CC(=O)O)NC(=O)[C@@H]4CCCN4C(=O)CN(C)C(=O)[C@H](Cc4ccc(-c5ccc(NC(=O)c6nn(CC(=O)O)c7ccccc67)cc5)cc4)NC3=O)cc2)cc1 [Example 426] ({CH2CO}-[Ala(morpholin-4-yl)][Bip(4'-CONHMe)][Bip(4'-NH)](Indazole3carbonyl(1-CH2COOH))[Sar]PD[dArg(ω-Bn(3-CH2OH))]VPVRLCG-NH2; thioether N-13) |  | < 50 nM
8 | CC(C)C[C@@H]1NC(=O)[C@H](CCCNC(=N)N)NC(=O)[C@H](C(C)C)NC(=O)[C@@H]2CCCN2C(=O)[C@H](C(C)C)NC(=O)[C@@H](CCCNC(=N)NCc2ccc(NS(C)(=O)=O)cc2)NC(=O)[C@H](CC(=O)O)NC(=O)[C@@H]2CCCN2C(=O)CN(C)C(=O)[C@H](Cc2ccc(-c3ccc(NC(=O)c4nn(CC(=O)O)c5ccccc45)cc3)cc2)NC(=O)[C@H](Cc2ccc(-c3ccccc3)cc2)NC(=O)[C@H](CN2CCOCC2)NC(=O)CSC[C@@H](C(=O)NCC(N)=O)NC1=O [Example 427] ({CH2CO}-[Ala(morpholin-4-yl)][Bip][Bip(4'-NH)](Indazole3carbonyl(1-CH2COOH))[Sar]PD[X45]VPVRLCG-NH2; thioether N-13) |  | 50 to 200 nM
9 | CC(C)C[C@@H]1NC(=O)[C@H](CCCNC(=N)N)NC(=O)[C@H](C(C)C)NC(=O)[C@@H]2CCCN2C(=O)[C@H](C(C)C)NC(=O)[C@@H](CCCNC(=N)NCCc2ccc(C#N)cc2)NC(=O)[C@H](CC(=O)O)NC(=O)[C@@H]2CCCN2C(=O)CN(C)C(=O)[C@H](Cc2ccc(-c3ccc(NC(=O)c4nn(CC(=O)O)c5ccccc45)cc3)cc2)NC(=O)[C@H](Cc2ccc(-c3ccccc3)cc2)NC(=O)[C@H](CN2CCOCC2)NC(=O)CSC[C@@H](C(=O)NCC(N)=O)NC1=O [Example 428] ({CH2CO}-[Ala(morpholin-4-yl)][Bip][Bip(4'-NH)](Indazole3carbonyl(1-CH2COOH))[Sar]PD[X30]VPVRLCG-NH2; thioether N-13) |  | 50 to 200 nM
10 | CC(C)C[C@@H]1NC(=O)[C@H](CCCNC(=N)N)NC(=O)[C@H](C(C)C)NC(=O)[C@@H]2CCCN2C(=O)[C@H](C(C)C)NC(=O)[C@@H](CCCNC(=N)NCCc2ccc(CN)cc2)NC(=O)[C@H](CC(=O)O)NC(=O)[C@@H]2CCCN2C(=O)CN(C)C(=O)[C@H](Cc2ccc(-c3ccc(NC(=O)c4nn(CC(=O)O)c5ccccc45)cc3)cc2)NC(=O)[C@H](Cc2ccc(-c3ccccc3)cc2)NC(=O)[C@H](CN2CCOCC2)NC(=O)CSC[C@@H](C(=O)NCC(N)=O)NC1=O [Example 429] ({CH2CO}-[Ala(morpholin-4-yl)][Bip][Bip(4'-NH)](Indazole3carbonyl(1-CH2COOH))[Sar]PD[X8]VPVRLCG-NH2; thioether N-13) |  | 200 to 2000 nM
